# According to patent US9771343B2, “2-alkyl-or-aryl-substituted tanshinone derivatives, and preparation method and application thereof” (Hangzhou Bensheng Pharmaceutical Co., Ltd., priority 2011, dated 2017):
# How the values were obtained:
# [1] = tested on: RPMI8226 (multiple myeloma); experiment: MTT cell growth inhibition, RPMI8226 multiple myeloma cells, 72 h; type: cell-based, human; conditions: Homo sapiens, RPMI 8226, 72 h
# Experimental: (§1) The standard sample of tanshinone I (TA) and the 2-alkyl- or 2-aromatic-substituted tanshinone I derivatives of the present invention are sufficiently dissolved in dimethylsulfoxide to produce a stock solution of 10 mg/mL, which is refrigerated at 4° C. and stored in dark, and is diluted with cell culture medium to a desired concentration prior to experimentation.
# (§2) Obtaining 6000 well-growing leukemia cells and inoculating them into wells of a 96-well cell culture plate. The culture medium is the RPMI-1640 cell culture medium containing 10% fetal bovine serum. After adding on the second day the 2-alkyl- or 2-aromatic-substituted tanshinone I derivatives of different concentrations and mixing uniformly, placing the plate in a carbon dioxide cell incubator (5% CO2) at 37° C. and incubated for 72 hours. Then the viable cell concentration is determined by MTT method. In this experiment, the cell viability in control group (not treated with any compound) is set as 100%, and the cell viability (%) after treatment by the compounds and the half maximum inhibitory concentration for the leukemia cell at 72 hours (IC50 value of 72 hours, μg/mL) are calculated.
# [2] = tested on: PANC-1 (pancreatic cancer); experiment: MTT cell growth inhibition, PANC-1 cells, 72 h; type: cell-based, human; conditions: Homo sapiens, PANC-1, 72 h
# Experimental: as §1, with “with a” for “with”, “to the” for “to a”
# (§3) Obtaining 6000 well-growing human solid tumor cells and inoculating them into wells of a 96-well cell culture plate. The culture medium is DMEM High Glucose cell culture medium containing 10% fetal bovine serum. The plate is placed in a carbon dioxide cell incubator (5% CO2) at 37° C. and incubated for 24 hours. After adding the 2-alkyl- or 2-aromatic-substituted tanshinone I derivatives of different concentrations and mixing uniformly, the plate is placed in a carbon dioxide cell incubator (5% CO2) at 37° C. and incubated for 72 hours. Then the viable cell concentration is determined by MTT method. In this experiment, the cell viability in control group (not treated with any compound) is set as 100%, and the cell viability (%) after treatment by the compounds and the half maximum inhibitory concentration for the leukemia cell at 72 hours (IC50 value of 72 hours, μg/mL) are calculated.
# [3] = tested on: MGC 803 (human gastric cancer cell); experiment: MTT cell growth inhibition, MGC 803 cells, 72 h; type: cell-based
# Experimental: as §1, with “with a” for “with”, “to the” for “to a”
# as §3
# [4] = tested on: U87 MG (malignant glioma cell); experiment: MTT cell growth inhibition, U87 MG cells, 72 h; type: cell-based, human
# Experimental: as §1, with “with a” for “with”, “to the” for “to a”
# as §3
# [5] = tested on: Becap37 (human breast cancer cell); experiment: MTT cell growth inhibition, Becap37 cells, 72 h; type: cell-based
# Experimental: as §1, with “with a” for “with”, “to the” for “to a”
# as §3
# [6] = tested on: NB4 (acute promyelocytic leukemia, AML); experiment: MTT cell growth inhibition, NB4 leukemia cells, 72 h; type: cell-based
# Experimental: as §1, §2
# [7] = tested on: Hep G2 (human liver cancer cell); experiment: MTT cell growth inhibition, Hep G2 cells, 72 h; type: cell-based
# Experimental: as §1, with “with a” for “with”, “to the” for “to a”
# as §3
# [8] = tested on: K562/adr (drug-resistant, chronic myeloid leukemia, CML); experiment: MTT cell growth inhibition, K562/adr leukemia cells, 72 h; type: cell-based; conditions: Homo sapiens, K562/Adr
# Experimental: as §1, §2
# [9] = tested on: Jurkat (acute lymphoblastic leukemia, ALL); experiment: MTT cell growth inhibition, Jurkat leukemia cells, 72 h; type: cell-based; conditions: Homo sapiens, 72 h
# Experimental: as §1, §2
# [10] = tested on: Hela (human cervical cancer cell); experiment: MTT cell growth inhibition, Hela cells, 72 h; type: cell-based
# Experimental: as §1, with “with a” for “with”, “to the” for “to a”
# as §3
# [11] = tested on: H9 (acute lymphoblastic leukemia, ALL); experiment: MTT cell growth inhibition, H9 leukemia cells, 72 h; type: cell-based
# Experimental: as §1, §2
# [12] = tested on: CNE (nasopharyngeal carcinoma cell); experiment: MTT cell growth inhibition, CNE cells, 72 h; type: cell-based, human; conditions: Homo sapiens, CNE, 72 h
# Experimental: as §1, with “with a” for “with”, “to the” for “to a”
# as §3
# [13] = tested on: A549 (human lung cancer); experiment: MTT cell growth inhibition, A549 cells, 72 h; type: cell-based; conditions: Homo sapiens, A549, 72 h
# Experimental: as §1, with “with a” for “with”, “to the” for “to a”
# as §3
# [14] = tested on: CaES-17 (esophageal cancer cell); experiment: MTT cell growth inhibition, CaES-17 cells, 72 h; type: cell-based, human; conditions: Homo sapiens, CaEs17, CaEs-17, 72 h
# Experimental: as §1, with “with a” for “with”, “to the” for “to a”
# as §3
# [15] = tested on: MG63 (osteosarcoma); experiment: MTT cell growth inhibition, MG63 cells, 72 h; type: cell-based, human; conditions: Homo sapiens, MG-63, 72 h
# Experimental: as §1, with “with a” for “with”, “to the” for “to a”
# as §3
# [16] = tested on: RKO (human colon adenocarcinoma cell); experiment: MTT cell growth inhibition, RKO cells, 72 h; type: cell-based
# Experimental: as §1, with “with a” for “with”, “to the” for “to a”
# as §3
# [17] = tested on: PC-3 (prostate cancer); experiment: MTT cell growth inhibition, PC-3 cells, 72 h; type: cell-based, human
# Experimental: as §1, with “with a” for “with”, “to the” for “to a”
# as §3
# [18] = tested on: Kasumi-1 (acute myeloid leukemia M2 type, AML-M2); experiment: MTT cell growth inhibition, Kasumi-1 leukemia cells, 72 h; type: cell-based; conditions: Homo sapiens, Kasumi-1, 72 h
# Experimental: as §1, §2
# [19] = tested on: Hep-2 (laryngeal carcinoma); experiment: MTT cell growth inhibition, Hep-2 cells, 72 h; type: cell-based, human; conditions: Homo sapiens, HEp-2, 72 h
# Experimental: as §1, with “with a” for “with”, “to the” for “to a”
# as §3
# [20] = tested on: SK-OV-3 (ovarian cancer cell); experiment: MTT cell growth inhibition, SK-OV-3 cells, 72 h; type: cell-based, human
# Experimental: as §1, with “with a” for “with”, “to the” for “to a”
# as §3
compound,measurement,setting,value
Cc1c(-c2ccc(C(=O)O)cc2)oc2c1C(=O)C(=O)c1c-2ccc2c(C)cccc12 [BS-TA-302],IC50,[1]; read-out: IC50,1 µg/mL
same,IC90,[1]; read-out: IC90,16.6 µg/mL
same,IC50,[2]; read-out: IC50,5.48 µg/mL
same,IC90,[2]; read-out: IC90,> 16 µg/mL
same,IC50,"[3]; Homo sapiens, MGC-803, 72 h, read-out: IC50",0.38 µg/mL
same,IC90,"[3]; Homo sapiens, MGC-803, 72 h, read-out: IC90",3.3 µg/mL
same,anti-MGC 803 activity (in words),[3]; Table 2,significantly improves
same,IC50,"[4]; Homo sapiens, U-87 MG, U87-MG, 72 h, read-out: IC50",0.5 µg/mL
same,IC90,"[4]; Homo sapiens, U-87 MG, U87-MG, 72 h, read-out: IC90",> 16 µg/mL
same,anti-U87 MG activity (in words),[4]; Table 2,superior to that of tanshinone I per se
same,IC50,"[5]; Homo sapiens, Becap-37, 72 h, read-out: IC50",1.28 µg/mL
same,IC90,"[5]; Homo sapiens, Becap-37, 72 h, read-out: IC90",> 16 µg/mL
same,anti-Becap37 activity (in words),[5]; Table 2,superior to that of tanshinone I per se
same,IC50,"[6]; NB4, 72 h, read-out: IC50",0.2 µg/mL
same,IC90,"[6]; NB4, 72 h, read-out: IC90",1 µg/mL
same,improvement of anti-NB4 activity as compared with tanshinone I per se,"[6]; NB4, vs tanshinone I",~5 fold
same,IC50,"[7]; Homo sapiens, HepG2, Hep G2, 72 h, read-out: IC50",1.94 µg/mL
same,IC90,"[7]; Homo sapiens, HepG2, Hep G2, 72 h, read-out: IC90",> 16 µg/mL
same,anti-Hep G2 activity (in words),[7]; Table 2,superior to that of tanshinone I per se
same,IC50,[8]; read-out: IC50,1.08 µg/mL
same,IC90,[8]; read-out: IC90,3.6 µg/mL
same,IC50,[9]; read-out: IC50,0.84 µg/mL
same,IC90,[9]; read-out: IC90,> 16 µg/mL
same,IC50,"[10]; Homo sapiens, HeLa, 72 h, read-out: IC50",0.5 µg/mL
same,IC90,"[10]; Homo sapiens, HeLa, 72 h, read-out: IC90",16 µg/mL
same,anti-Hela activity (in words),[10]; Table 2,superior to that of tanshinone I per se
same,IC50,"[11]; H9, 72 h, read-out: IC50",0.7 µg/mL
same,IC90,"[11]; H9, 72 h, read-out: IC90",1.98 µg/mL
same,improvement of anti-H9 activity as compared with tanshinone I per se,"[11]; H9, vs tanshinone I",~5 fold
same,IC50,[12]; read-out: IC50,15 µg/mL
same,IC90,[12]; read-out: IC90,> 16 µg/mL
same,IC50,[13]; read-out: IC50,16.6 µg/mL
same,IC90,[13]; read-out: IC90,> 16 µg/mL
same,IC50,[14]; read-out: IC50,6.83 µg/mL
same,IC90,[14]; read-out: IC90,> 16 µg/mL
same,IC50,[15]; read-out: IC50,1.05 µg/mL
same,IC90,[15]; read-out: IC90,> 16 µg/mL
same,IC50,"[16]; Homo sapiens, RKO, 72 h, read-out: IC50",1.53 µg/mL
same,IC90,"[16]; Homo sapiens, RKO, 72 h, read-out: IC90",> 16 µg/mL
same,anti-RKO activity (in words),[16]; Table 2,superior to that of tanshinone I per se
same,IC50,"[17]; Homo sapiens, PC-3, 72 h, read-out: IC50",6.49 µg/mL
same,IC90,"[17]; Homo sapiens, PC-3, 72 h, read-out: IC90",> 16 µg/mL
same,anti-PC-3 activity (in words),[17]; Table 2,significantly improves
same,IC50,[18]; read-out: IC50,3.85 µg/mL
same,IC90,[18]; read-out: IC90,17.5 µg/mL
same,IC50,[19]; read-out: IC50,8 µg/mL
same,IC90,[19]; read-out: IC90,> 16 µg/mL
same,IC50,"[20]; Homo sapiens, SK-OV-3, 72 h, read-out: IC50",11.1 µg/mL
same,IC90,"[20]; Homo sapiens, SK-OV-3, 72 h, read-out: IC90",> 16 µg/mL
same,anti-SK-OV-3 activity (in words),[20]; Table 2,superior to that of tanshinone I per se
